Experimental data: article PMC7918798, “Coumarins from Seseli devenyense Simonk.: Isolation by Liquid–Liquid Chromatography and Potential Anxiolytic Activity Using an In Vivo Zebrafish Larvae Model” (International Journal of Molecular Sciences, 2021)
“Also recorded” adds a separate entry of the source.

Key:
[1] = Shake-flask partition coefficient in HEMWat biphasic solvent systems; format: physicochemical
Protocol: The screening for suitable biphasic solvent systems to isolate the target coumarins from Seseli devenyense methanolic fruit extract (SDMFE) was performed by shake-flask experiments. The partition coefficient (Pi), defined as the ratio of the concentration of a solute in the stationary phase to its concentration in the mobile phase, was used as the screening parameter. The experimental protocol was previously descried by Widelski et al. (2018). Briefly, 1 mg of crude extract was dissolved in 4 mL of biphasic solvent systems obtained by mixing various volumes of hexane, ethyl acetate, methanol and water (HEMWat). After vigorous shaking, the flasks were left until the complete separation of the layers. Then, equal volumes of the upper and lower phase (0.5 mL) were taken, evaporated to dryness, dissolved again in methanol (1.0 mL) and analyzed by HPLC-DAD analysis, as descried below.
The preliminary analysis of the SDMFE, determination of the partition coefficient values and purity of collected fractions were assessed by HPLC-DAD. The HPLC-DAD analyses were performed on a Shimadzu HPLC (Shimadzu, Tokyo, Japan) equipped with automatic degasser (DGU-20A3R), quaternary pump (LC-20AD), auto-sampler (SIL-20AHT) and diode array detector (SPD-M20A). The separations were carried out on an Agilent Zorbax Eclipse XDB-C18 (Agilent, Santa Clara, CA, USA) (250 mm × 4.6 mm, 5 μm) column with a mobile phase consisting of water (solvent A) and methanol (solvent B). The following gradient was applied: 0 min: 50% B; 5 min: 60% B; 25 min: 80% B; 30–35 min: 100% B. The flow-rate was 1 mL/min; the column temperature was set at 25 °C. The injection volume of sample was 10 μL and detection was carried out at 320 nm.

[2] = tested on: 5-dpf zebrafish larvae; experiment: Zebrafish larvae light/dark transition challenge: locomotor activity and thigmotaxis (anxiolytic activity assay, Phase 2); format: in vivo, Danio rerio; settings: for distance moved by the larvae in the central arena / time spent in the central area: dark phase vs light phase, concentration not stated
Protocol: (§1) The research protocol was adopted after Schnorr et al. (2012). The anxiolytic activity was evaluated in 24-well plates. The inner and outer zones of the well were delineated according to Schnorr et al. (2012). […] It could be also described as decreasing thigmotaxis. 1% DMSO in E3 solution was used as the negative control, 10 μM diazepam was used as the positive control. 32 larvae were used for each concentration.
(§2) The experimental procedure was divided into three stages: • (a) Preincubation: larvae were pre-incubated in a 1500 μL solution of tested compounds in individual wells of a 24-well plate at 28.5 °C, in dark, for 30 min. • (b) Acclimatization (min 0–10): plates were placed in an automated video recording bench station (ViewPoint, Lyon, France). Larvae were allowed to acclimatize to the test apparatus for 10 min. During this period, lights were kept on. • (c) Visual motor challenge (min 11–95): this stage experiment was divided into two phases: Phase 1—continuous illumination: larvae were subjected to continuous light for 40 min, with the purpose to determine the spontaneous locomotor activity and thigmotaxis behavior (before applying the factor causing the anxiety). Phase 2—light/dark transition: larvae were subjected to three cycles, each involving the 10-min lighting phase (continuous light) and the 5-min dark phase (anxiogenic factor).

[3] = tested on: 5-dpf zebrafish larvae; experiment: Zebrafish larvae 40 min continuous illumination: spontaneous locomotor activity and thigmotaxis (Phase 1); format: in vivo, Danio rerio; settings: for spontaneous locomotor activity (average distance moved): 40 min continuous illumination
Protocol: as §1, §2

[4] = solvent system I, hexane/ethyl acetate/methanol/water 2/5/2/5 (v/v/v/v)
[5] = dark phase vs DMSO-treated group in dark phase, 1.5 μM
[6] = dark phase vs DMSO-treated group in dark phase, 9 μM
[7] = dark phase vs DMSO-treated group in dark phase, 12.5 μM
[8] = dark phase vs DMSO-treated group in dark phase, 25 μM
[9] = dark phase vs light phase within same group, 1.5 μM
[10] = dark phase vs light phase within same group, 3 μM
[11] = dark phase vs light phase within same group, 6 μM
[12] = dark phase vs light phase within same group, 9 μM
[13] = dark phase vs light phase within same group, 12.5 μM
[14] = dark phase vs light phase within same group, 25 μM
[15] = dark phase vs DMSO-treated group in dark phase, 50 μM
[16] = dark phase vs light phase within same group, 50 μM
[17] = light phase vs DMSO-treated group in light phase, 12.5 μM
[18] = light phase vs DMSO-treated group in light phase, 25 μM
[19] = light phase vs DMSO-treated group in light phase, 50 μM
[20] = dark phase vs DMSO-treated group in dark phase, 6 μM
[21] = dark phase vs DMSO-treated group in dark phase, 15 μM
[22] = dark phase vs light phase within same group, 15 μM
[23] = dark phase vs DMSO-treated group in dark phase, diazepam 10 μM
[24] = dark phase vs light phase within same group, diazepam 10 μM
[25] = light phase vs DMSO-treated group in light phase, diazepam 10 μM
[26] = 40 min continuous illumination vs DMSO-treated control group, diazepam 10 µM

CC1(C)Oc2ccc3ccc(=O)oc3c2[C@H](O)[C@@H]1O [cis-khellactone]
Partition Coefficients (Pi) [1, 4]: 2.50 | percentage of time spent in central area [2, 5]: significant increases | percentage of time spent in central area ([2]; dark phase vs DMSO-treated group in dark phase, 3 μM): significant increases | percentage of time spent in central area [2, 6]: significant increases | percentage of time spent in central area [2, 7]: significant increases | percentage of time spent in central area [2, 8]: significant increases | percentage of distance moved in central area ([2]; dark phase vs DMSO-treated group in dark phase, all tested concentrations (1.5, 3, 6, 9, 12.5, 25 μM)): not observed | locomotor activity (average distance moved per 1-min time bin) [2, 9]: increase | percentage of distance moved in central area [2, 9]: increase | percentage of time spent in central area [2, 9]: increase | locomotor activity (average distance moved per 1-min time bin) [2, 10]: increase | percentage of time spent in central area [2, 10]: increase | locomotor activity (average distance moved per 1-min time bin) [2, 11]: increase | percentage of distance moved in central area [2, 11]: increase | locomotor activity (average distance moved per 1-min time bin) [2, 12]: increase | percentage of distance moved in central area [2, 12]: increase | locomotor activity (average distance moved per 1-min time bin) [2, 13]: increase | percentage of distance moved in central area [2, 13]: increase | percentage of time spent in central area [2, 13]: increase | locomotor activity (average distance moved per 1-min time bin) [2, 14]: increase | percentage of distance moved in central area [2, 14]: increase | percentage of time spent in central area [2, 14]: increase | percentage of time spent in central area ([2]; light phase vs DMSO-treated group in light phase, 6 μM): significant increase | percentage of time spent in central area ([2]; light phase vs DMSO-treated group in light phase, 9 μM): significant increase | locomotor activity (average distance moved per 1-min time bin) ([2]; light phase vs DMSO-treated group in light phase, all tested concentrations (1.5, 3, 6, 9, 12.5, 25 μM)): not noticed | anxiolytic activity (authors' overall statement) ([2]; zebrafish larvae model): weakest activity | spontaneous locomotor activity (average distance moved) ([3]; all tested concentrations (1.5, 3, 6, 9, 12.5, 25 µM)): has not influenced | time spent in the central arena ([3]; 40 min continuous light, one-way ANOVA between tested groups, 1.5, 3, 6, 9, 12.5, 25 µM): not showed

C/C=C(/C)C(=O)O[C@H]1c2c(ccc3ccc(=O)oc23)OC(C)(C)[C@H]1O [d-laserpitin]
Partition Coefficients (Pi) ([1]; solvent system II, hexane/ethyl acetate/methanol/water 6/5/6/5 (v/v/v/v)): 0.84 | locomotor activity (average distance moved per 1-min time bin) [2, 7]: significant decreases | percentage of distance moved in central area [2, 7]: significant increases | percentage of time spent in central area [2, 7]: significant increases | locomotor activity (average distance moved per 1-min time bin) [2, 8]: significant decreases | percentage of distance moved in central area [2, 8]: significant increases | percentage of time spent in central area [2, 8]: significant increases | locomotor activity (average distance moved per 1-min time bin) [2, 15]: significant decreases | percentage of distance moved in central area [2, 15]: significant increases | percentage of time spent in central area [2, 15]: significant increases | percentage of distance moved in central area [2, 13]: increase | locomotor activity (average distance moved per 1-min time bin) [2, 14]: increase | percentage of distance moved in central area [2, 14]: increase | percentage of time spent in central area [2, 14]: increase | locomotor activity (average distance moved per 1-min time bin) [2, 16]: increase | percentage of distance moved in central area [2, 16]: increase | percentage of time spent in central area [2, 16]: increase | distance moved by the larvae in the central arena [2]: significantly increased | time spent in the central area [2]: significantly increased | percentage of distance moved in central area [2, 17]: decreased | percentage of time spent in central area [2, 17]: significant increase | percentage of distance moved in central area [2, 18]: significant increase | percentage of time spent in central area [2, 18]: significant increase | percentage of distance moved in central area [2, 19]: significant increase | percentage of time spent in central area [2, 19]: significant increase | spontaneous locomotor activity (average distance moved) ([3]; all concentrations (12.5, 25, 50 µM)): has not influe nced

CC(C)(O)C(O)Cc1c(O)ccc2ccc(=O)oc12 (stereo not drawn) [devenyol]
Partition Coefficients (Pi) [1, 4]: 0.80 | anxiolytic activity (authors' overall statement) ([2]; concentrations of 1.5, 6, 9 and 15 μM): active | locomotor activity (average distance moved per 1-min time bin) [2, 5]: decreases | percentage of distance moved in central area [2, 5]: significant increases | percentage of time spent in central area [2, 5]: significant increase | percentage of distance moved in central area [2, 20]: significant increases | percentage of time spent in central area [2, 20]: significant increase | percentage of distance moved in central area [2, 6]: significant increases | percentage of time spent in central area [2, 6]: significant increase | percentage of distance moved in central area [2, 21]: significant increases | percentage of time spent in central area [2, 21]: significant increase | locomotor activity (average distance moved per 1-min time bin) [2, 9]: significant increases | percentage of distance moved in central area [2, 9]: increase | locomotor activity (average distance moved per 1-min time bin) [2, 10]: significant increases | percentage of distance moved in central area [2, 10]: increase | locomotor activity (average distance moved per 1-min time bin) [2, 11]: significant increases | percentage of distance moved in central area [2, 11]: increase | locomotor activity (average distance moved per 1-min time bin) [2, 12]: significant increases | percentage of distance moved in central area [2, 12]: increase | locomotor activity (average distance moved per 1-min time bin) [2, 22]: significant increases | percentage of distance moved in central area [2, 22]: increase | percentage of time spent in central area ([2]; dark phase vs light phase within same group, all concentrations (1.5, 3, 6, 9, 15 μM)): increase | distance moved by the larvae in the central arena [2]: significantly increased | time spent in the central area [2]: significantly increased | spontaneous locomotor activity (average distance moved) ([3]; all concentrations (1.5, 3, 6, 9, 15 µM)): has not influenced

CN1C(=O)CN=C(c2ccccc2)c2cc(Cl)ccc21 [diazepam, reference compound]
locomotor activity (average distance moved per 1-min time bin) [2, 23]: significant decreases; also recorded: decrease | percentage of distance moved in central area [2, 23]: significant increases | percentage of time spent in central area [2, 23]: significant increases | percentage of distance moved in central area [2, 24]: increase | percentage of time spent in central area [2, 24]: increase | distance moved by the larvae in the central arena [2]: significantly increased | time spent in the central area [2]: significantly increased | percentage of distance moved in central area [2, 25]: significant increase | percentage of time spent in central area [2, 25]: significant increase | percentage of distance moved in the central arena [3, 26]: increased | percentage of time spent in the central arena [3, 26]: increase
